How the values were obtained:
Test in all cases: tryptophan fluorescence quenching, glutathionylation of SQLWCLSN, AUC
Type in all cases: biochemical
[1] = target: T1, rCLIC3 (Homo sapiens, UniProt O95833); conditions: 5 mM GSSG, 100 uM peptide, McIlvaine's buffer pH 8, 0.1 uM enzyme; 1 h pre-incubation with 10 uM IAA-94
T1 construct: gene CLIC3; recombinant, soluble form; pET28a(+), E. coli BL21(DE3); His-tag removed by thrombin; SEC; endotoxin removed

[2] = target: T2, rCLIC4 (Homo sapiens, UniProt Q9Y696); conditions: 5 mM GSSG, 100 uM peptide, McIlvaine's buffer pH 7, 0.1 uM enzyme; 1 h pre-incubation with 10 uM IAA-94
T2 construct: gene CLIC4; recombinant, soluble form; pET28a(+), ClearColi BL21(DE3); His-tag removed by thrombin; SEC
T2 sequence (Q9Y696 whole entry): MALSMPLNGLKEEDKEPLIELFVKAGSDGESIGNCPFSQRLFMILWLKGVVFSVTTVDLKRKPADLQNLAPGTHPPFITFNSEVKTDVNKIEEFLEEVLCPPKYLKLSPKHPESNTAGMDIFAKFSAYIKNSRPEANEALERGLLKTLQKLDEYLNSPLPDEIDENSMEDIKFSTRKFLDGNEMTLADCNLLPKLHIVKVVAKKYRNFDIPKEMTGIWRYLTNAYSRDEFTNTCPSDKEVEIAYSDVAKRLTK

[3] = target: T3, rCLIC1 (Homo sapiens, UniProt O00299); conditions: 5 mM GSSG, 100 uM peptide, McIlvaine's buffer pH 7, 0.1 uM enzyme; 1 h pre-incubation with 10 uM IAA-94
T3 construct: gene CLIC1; recombinant, soluble form; pET28a(+), ClearColi BL21(DE3); His-tag removed by thrombin; SEC

T1 sequence (O95833 whole entry): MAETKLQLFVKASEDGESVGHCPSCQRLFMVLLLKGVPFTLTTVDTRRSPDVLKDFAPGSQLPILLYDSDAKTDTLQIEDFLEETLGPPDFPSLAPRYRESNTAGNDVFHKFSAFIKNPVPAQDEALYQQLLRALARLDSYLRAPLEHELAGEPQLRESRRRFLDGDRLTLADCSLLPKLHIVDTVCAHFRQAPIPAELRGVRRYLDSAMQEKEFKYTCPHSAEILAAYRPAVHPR

CC1(C2CCCC2)Cc2cc(OCC(=O)O)c(Cl)c(Cl)c2C1=O (stereo not drawn) [IAA-94]
fold reduction of glutathionylation activity at 10 uM [1]: 0.2 fold
fold decrease in glutathionylation activity at 10 uM [2]: 0.4 fold
fold decrease in glutathionylation activity at 10 uM [3]: 0.7 fold

From article PMC12467487, “An In Vitro Study of Protein S-Glutathionylation by Members of the CLIC Protein Family” (Biomolecules, 2025)
